Values after ≈ are worked out from the molar mass of the structure shown. A value given as a limit tells only on which side of the number the result lay.

What is called MIC is the lowest concentration found to suppress growth.

The first test deals with Mycobacterium tuberculosis. In words: Antibacterial activity against Mycobacterium tuberculosis H37Rv ATCC 27294 incubated for 5 days by Alamar blue staining method. Format: functional. To be noted: H37Rv ATCC 27294, 120 h, time 5 day. (In general: The colour change of resazurin is a common sign of viable cells or microbes.)
For `COc1cc2c(cc1OC)-c1c3c(cc4ccnc(c14)C2=O)OCO3` [DICENTRINONE], the MIC came out at 50 mg/L (≈ 149 µM).

For the next test, the system named is Mycobacterium tuberculosis. In words: Antibacterial activity against Mycobacterium tuberculosis H37Ra ATCC 25177 assessed as no visible mycobacterial growth incubated for 7 to 8 days by light microscope based spectrophotometric analysis. The settings on record: time 7-8 day. Format: functional.
In the case of `COc1c(O)ccc2c1cnc1c3cc4c(cc3ccc21)OCO4` [DECARINE], the MIC was 3.1 mg/L (≈ 9.71 µM).

A further test deals with Mycobacterium tuberculosis. In words: Antibacterial activity against Mycobacterium tuberculosis H37Ra assessed as inhibition of bacterial growth incubated for 72 hrs by microbroth dilution method. Format: functional.
Conditions: not given
In general terms: Dilution methods test growth across graded concentrations, often in twofold steps.
For the molecule `CCCC/C=C\CCCCCCCc1cc(=O)c2ccccc2n1C`, the MIC came out at 5 mg/L (≈ 14.7 µM).

Another test relates to Mycobacterium tuberculosis. In words: Antibacterial activity against Mycobacterium tuberculosis measured after 14 days. Format: functional. To be noted: 336 h, time 14 day.
Take `Cn1c(=O)ccc2ccccc21`: the MIC amounted to 25 mg/L (≈ 157 µM). For the molecule `CCCCCc1cc(OC)c2ccccc2n1`, the MIC was found to be 6.25 mg/L (≈ 27.3 µM). On the same count and under the same terms, to `COc1ccc2cc1-c1cc(ccc1O)CC1NCCc3cc4c(cc31)Oc1c(c(OC)cc3c1C(C2)N(C)CC3)O4` (stereo not drawn) belongs 3.1 mg/L (≈ 5.51 µM); to `COc1ccc(CCC2CCc3ccccc3N2C)cc1OC` (stereo not drawn), 6 mg/L (≈ 19.3 µM). The same measure, in the same setting: in the case of `COC(=O)C1=C2Nc3ccccc3C23CCN2C(O)C4(CC5CC67CC(=O)OC6CCN6CCC8(c9cccc(OC)c9N(C4)C58)C67)C4OCCC4(C1)C23` (stereo not drawn) it was 4 mg/L (≈ 5.46 µM). Still for that read-out and setting: in the case of `COc1ccc2cc1-c1cc(ccc1O)CC1c3cc4c(cc3CCN1C)Oc1c(OC)cc3c(c1O4)C(C2)N(C)CC3` (stereo not drawn) it was 3.1 mg/L (≈ 5.38 µM); in that of `COc1ccc2cc1Oc1ccc(cc1)CC1NCCc3cc(OC)c(cc31)Oc1c(OC)c(OC)cc3c1C(C2)N(C)CC3` (stereo not drawn), 0.25 mg/L (≈ 0.411 µM). As for `COc1ccc(CCc2cc(OC)c3ccccc3n2)cc1OC`, the MIC amounted to 6.25 mg/L (≈ 19.3 µM). Still for that read-out and setting: to `CN1c2ccccc2CCC1CCc1ccc2c(c1)OCO2` (stereo not drawn) belongs 6.25 mg/L (≈ 21.2 µM); to `COc1ccc2c(c1)c(-c1c3c4c(cc5c(c4c4ccc(OC)cc14)OCO5)CCN3)c1c3c(cc4c(c32)OCO4)CCN1` [BIDEBILINE E], 6.25 mg/L (≈ 10.7 µM); to `COc1cc(CCc2ccc3c(c2)OCO3)nc2ccccc12` [CUSPARINE], 6.25 mg/L (≈ 20.3 µM).

A further test concerns Mycolicibacterium fortuitum. In words: Antibacterial activity against Mycobacterium fortuitum measured after 72 hrs by 96-well microtitre plate assay. Format: functional.
Conditions: not given
With `C[n+]1c2ccccc2cc2[n-]c3ccccc3c21` [CRYPTOLEPINE], the lowest concentration to inhibit growth (MIC) was 16 mg/L (≈ 68.9 µM).

For a further test, the system named is Mycolicibacterium fortuitum. In words: Antibacterial activity against Mycobacterium fortuitum ATCC 6841 measured after 24 hrs. Format: functional.
Conditions: not given
Take `Cn1c2c3ccccc3nc-2c(-c2c3nc4ccccc4c-3n(C)c3ccccc23)c2ccccc21` [BISCRYPTOLEPINE]: the MIC came out at 6.25 mg/L (≈ 13.5 µM). The same measure, in the same setting: to `Cn1c2nc3ccccc3c-2cc2ccccc21` [NEOCRYPTOLEPINE] belongs 31 mg/L (≈ 133 µM).

For another test, the system named is Mycobacterium tuberculosis. In words: Antibacterial activity against Mycobacterium tuberculosis H37Rv ATCC 27294 by broth microdilution based microplate Alamar blue staining method. Format: functional.
Conditions: not given
In turn, `CC(=O)C[C@H]1CC2C(C3c4[nH]c5ccccc5c4CCN31)C(O)C13CC/C=C\CCCCN1CC21CC/C=C\CCCCNC13` (stereo partly drawn) had an MIC of 1.57 mg/L (≈ 2.57 µM). Regarding `CC(=O)C[C@@H]1CC2C(C3c4[nH]c5ccccc5c4CCN31)C(O)C13CC/C=C\CCCCN1CC21CC/C=C\CCCCNC13` (stereo partly drawn), the lowest concentration to inhibit growth (MIC) was 1.9 mg/L (≈ 3.11 µM).

The subject of a further test is Mycobacterium tuberculosis. Description: Antibacterial activity against Mycobacterium tuberculosis incubated for 5 days by Alamar blue staining method. To be noted: 120 h, time 5 day. Format: functional.
Molecule `COc1cc(-c2ccccc2)nc2ccccc12` gave an MIC of 6.25 mg/L (≈ 26.6 µM).

As for `COc1ccc2c(c1OC)C(OC)N(C)c1c-2ccc2cc3c(cc12)OCO3` (stereo not drawn), it took 12.5 mg/L (≈ 32.9 µM) to inhibit growth (MIC). Same read-out and setting: in the case of `COc1cc2c(c3c[n+](C)c4c5cc6c(cc5ccc4c13)OCO6)OCO2` it was 12.5 mg/L; in that of `COc1cc2c(c3c1-c1ccc4cc5c(cc4c1N(C)C3OC)OCO5)OCO2` (stereo not drawn), 25 mg/L (≈ 63.5 µM); in that of `COc1cc2c3c(OC)cc4c(c3c[n+](C)c2c2cc3c(cc12)OCO3)OCO4`, 12.5 mg/L. Molecule `Cc1ccnc2c1C(=O)c1ccccc1C2=O` [CLEISTOPHOLINE] returned an MIC of 12.5 mg/L (≈ 56 µM). Molecule `COc1cc2c[n+](C)c3c4cc5c(cc4ccc3c2cc1OC)OCO5` [NITIDINE] showed an MIC of 12.5 mg/L.

In another test the test system is Mycolicibacterium aurum. Description: Antibacterial activity against Mycobacterium aurum measured after 72 hrs.
Conditions: not given
Format: functional.
In turn, `C[n+]1cc2c3c(ccc2c2ccc4cc5c(cc4c21)OCO5)OCO3` [SANGUINARIUM] showed an MIC of 24.5 mg/L.

A further test concerns Mycobacterium tuberculosis. Description: Antibacterial activity against Mycobacterium tuberculosis H37Rv ATCC 27294 incubated for 6 weeks by MGIT assay. Format: functional. To be noted: H37Rv ATCC 27294, 1008 h.
`COc1ccc2c3c(c4cc(OC)c(OC)cc4c2c1)CN1CCC[C@H]1C3` displayed an MIC of 12.5 mg/L (≈ 34.4 µM).

For another test, the system named is Mycobacterium tuberculosis. Description: Antibacterial activity against Mycobacterium tuberculosis H37Ra by MABA method.
Conditions: not given
Format: functional.
`COc1cccc2c1C(=O)c1nccc3cc4c(c-2c13)OCO4` [OXOSTEPHANINE] displayed an MIC of 25 mg/L (≈ 81.9 µM).

A further test deals with Mycolicibacterium smegmatis. In words: Antibacterial activity against Mycobacterium smegmatis measured after 72 hrs. Format: functional.
Conditions: not given
In the case of `C[n+]1cc2c3c(ccc2c2ccc4cc5c(cc4c21)OCO5)OCO3` [SANGUINARIUM], the MIC amounted to 24.5 mg/L.

The test system of another test is Mycobacterium tuberculosis. In words: Antibacterial activity against Mycobacterium tuberculosis. Format: functional, organism-based.
Conditions: not given
As to `O=C1c2c(O)ccnc2-c2nccc3c2c1nc1ccccc13`, the MIC is over 12.6 mg/L. Take `COc1cc2c(cc1OC)-c1cc(CC(C)=O)c3cc4c(cc3c1N(C)C2)OCO4`: the MIC was 6.25 mg/L (≈ 15.4 µM). The molecule `On1ccc2c3ccccc3nc-2c1C1=CC2(O)CCC/C=C\CCCN3CCC1C1(CC4/C=C\CCCCN4C21)C3` (stereo not drawn) yielded an MIC of 3.9 mg/L (≈ 6.91 µM). `COc1cc2c(cc1O)CCNC21C[S+]([O-])C2c3c(OC(C)=O)c(C)c4c(c3C(COC1=O)N1C(C#N)C3CC5CC(C)C(OC)C(O)C5C(C21)N3C)OCO4` (stereo not drawn) yielded an MIC of 1.6 mg/L (≈ 2.02 µM). With `OC12C=C(c3nccc4c3[nH]c3ccccc34)C3CCN(CCCC/C=C\CC1)CC31CC34CCC(CCCN3C21)O4` (stereo not drawn), the MIC turned out to be 1.77 mg/L (≈ 3.13 µM).

`O=C1c2cccnc2-c2nccc3c2c1nc1ccccc13` [ASCIDIDEMIN] showed an MIC of 0.01 mg/L (≈ 0.0353 µM). Still for that read-out and setting: to `COc1ccc2c(c[n+](C)c3c4cc5c(cc4ccc23)OCO5)c1OC` [CHELERYTHRINE] belongs 3.1 mg/L; to `CSC1=C(CCNC(C)=O)c2nc3ccccc3c3ccnc(c23)C1=O` [DIPLAMINE], 6.18 mg/L (≈ 17 µM). Same read-out and setting: in the case of `CSc1cnc2c3c(nc4ccccc4c13)C(CCNC(C)=O)=CC2=O` [ISODIPLAMINE] it was 6.18 mg/L (≈ 17 µM); in that of `O=C1c2scnc2-c2nccc3c2c1nc1ccccc13` [KUANONIAMINE A], 3.1 mg/L (≈ 10.7 µM). `CC(=O)NCCc1c2c3c(ccnc3c3ncsc13)-c1ccccc1N2` [KUANONIAMINE D] showed an MIC of 12.2 mg/L (≈ 34 µM).

In turn, `CC(=O)NCCc1c2c(c3nccc4c3c1Nc1ccccc1-4)OCS2` [LISSOCLINIDINE] gave an MIC of 6.18 mg/L (≈ 17 µM). In turn, `CC(=O)NCCc1c2c(c3nccc4c3c1Nc1ccccc1-4)NC(=O)CS2` [SHERMILAMINE B] came in with an MIC of 12.5 mg/L (≈ 32 µM).

The values are drawn from ChEMBL document CHEMBL5126535, “Quinoline heterocyclic containing plant and marine candidates against drug-resistant Mycobacterium tuberculosis: A systematic drug-ability investigation” (Eur J Med Chem, 2022).
